Laboratory results reported in patent US10071042B2, “External dermatological agent for anti-ageing” (Hayashibara Co., Ltd., priority 2014, dated 2018).

Experiments:
[1] = tested on: normal human epidermal keratinocytes; assay: Number of cells, methylene blue (Experiment 6); type: cell-based; details: for Number of cells (%): control = 100%
Description: The number of proliferated cells was determined with methylene blue and regarded as 100% for use in calculating the variation of cells with any one of the test substances.

filaggrin protein = assay: Expression of filaggrin protein, Western blot filaggrin/actin (Experiment 3); type: cell-based, human; details: control = 100%
Description: Then, the expression of filaggrin was induced in such a manner of further culturing the cells for another four days, while replacing the culture medium with an EpiLife medium supplemented with 2 μM, 5 μM, or 10 μM of sodium adenosine N1-oxide 5′-phosphate every three days. […] After four days culture, the resultant cells were washed with Dulbecco's phosphate buffered saline, added with 0.1 mL of an SDS sample buffer (pH 6.8) containing 62.5 mM Tris-HCl, 2% SDS, 10% glycerol, and 50 mM DTT along with a protease inhibitor, and collected with a cell scraper. The collected cells were boiled for 10 min, disrupted ultrasonically, and quantified with “Pierce BCA Protein Assay Kit”, commercialized by ThermoFisher Scientific K. K., Yokohama, Japan. A prescribed amount of the resulting disrupted cells was sampled and subjected to SDS-polyacrylamide gel electrophoresis in an amount of 100 μg/lane, and the resulting gel was transferred to a PVDF membrane. The resulting transferred PVDF membrane was blocked with “Block Ace”, commercialized by DS Pharma Biomedical Co., Ltd., Osaka, Japan, reacted with a 200-fold dilution of “AKH1”, a mouse anti-filaggrin antibody, commercialized by, Santa Cruz Biotechnology Inc., CA, USA, or a 20,000-fold dilution of “MAB1501”, a mouse actin antibody, commercialized by Chemicon International Inc., MA, USA, as a first antibody, and then reacted with a 2,000-fold dilution of “P0447”, an HRP-labeled anti-mouse immunoglobulin, commercialized by Dako Japan, Tokyo, Japan, as a secondary antibody. After the reaction, by using ECL Plus Western Blotting Detection System, commercialized by GE Healthcare Japan, Tokyo, Japan, bands were detected on “Hyperfilm ECL”, a chemiluminescent film commercialized by GE Healthcare Japan, Tokyo, Japan. The detected bands were analyzed and quantified with “Image J”, an image analyzing software. A control system with no addition of any of the test substances was provided and the increasing intensity ratio of a band of filaggrin/actin was regarded as 100%, with which data for the increased percentages of the intensity ratios of bands of filaggrin/actin of the test substances were comparatively evaluated.

Nc1c2ncn([C@@H]3O[C@H](COP(=O)([O-])O)[C@@H](O)[C@H]3O)c2nc[n+]1[O-].[Na+] [Sodium adenosine N1-oxide 5′-phosphate, sodium adenosine N1-oxide 5′-phosphate]
Number of cells (%) ([1]; 10 μM): 111.4% | Number of cells (%) ([1]; 20 μM): 103.6% | Number of cells (%) ([1]; 50 μM): 100.6% | influence on cell proliferation ([1]; 10 to 50 μM): No influence on cell proliferation | Relative expression level of filaggrin protein (%) (filaggrin protein; 2 μM): 133% | Relative expression level of filaggrin protein (%) (filaggrin protein; 5 μM): 206% | Relative expression level of filaggrin protein (%) (filaggrin protein; 10 μM): 308%
